In PubChem BioAssay (NCI):
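Test compounds were applied to cells in 96-well plates for 48 hours at 5 doses. The concentration for 50% growth inhibition is given as GI50. Definition used: TGI = concentration required for complete inhibition of growth.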

Tests used:
Experiment in all cases: growth of human tumour cells (NCI), 48 h; in the data active = GI50 below about 0.43 µM; inactive = the rest
LOX IMVI melanoma = tested on: LOX IMVI melanoma
IGROV1 ovarian = tested on: IGROV1 ovarian
DU-145 prostate = tested on: DU-145 prostate
SF-295 CNS = tested on: SF-295 CNS
BT-549 breast = tested on: BT-549 breast
OVCAR-4 ovarian = tested on: OVCAR-4 ovarian
UO-31 renal = tested on: UO-31 renal
SN12C renal = tested on: SN12C renal
RXF 393 renal = tested on: RXF 393 renal
RPMI-8226 leukemia = tested on: RPMI-8226 leukemia
NCI-H226 lung = tested on: NCI-H226 lung
MOLT-4 leukemia = tested on: MOLT-4 leukemia
NCI/ADR-RES ovarian = tested on: NCI/ADR-RES ovarian
ACHN renal = tested on: ACHN renal
SK-MEL-5 melanoma = tested on: SK-MEL-5 melanoma
CCRF-CEM leukemia = tested on: CCRF-CEM leukemia
HOP-62 NSCLC = tested on: HOP-62 NSCLC
PC-3 prostate = tested on: PC-3 prostate
HCT-15 colon = tested on: HCT-15 colon
OVCAR-3 ovarian = tested on: OVCAR-3 ovarian
KM12 colon = tested on: KM12 colon
SK-OV-3 ovarian = tested on: SK-OV-3 ovarian
UACC-257 melanoma = tested on: UACC-257 melanoma
HL-60(TB) leukemia = tested on: HL-60(TB) leukemia
U251 CNS = tested on: U251 CNS
SK-MEL-28 melanoma = tested on: SK-MEL-28 melanoma
MCF7 breast = tested on: MCF7 breast
UACC-62 melanoma = tested on: UACC-62 melanoma
NCI-H460 lung = tested on: NCI-H460 lung
K-562 leukemia = tested on: K-562 leukemia
HT29 colon = tested on: HT29 colon
HS 578T breast = tested on: HS 578T breast
TK-10 renal = tested on: TK-10 renal
SNB-75 CNS = tested on: SNB-75 CNS
NCI-H23 lung = tested on: NCI-H23 lung
HCT-116 colon = tested on: HCT-116 colon
CAKI-1 renal = tested on: CAKI-1 renal
SF-268 CNS = tested on: SF-268 CNS
OVCAR-8 ovarian = tested on: OVCAR-8 ovarian
786-0 renal = tested on: 786-0 renal
SNB-19 CNS = tested on: SNB-19 CNS
EKVX NSCLC = tested on: EKVX NSCLC
T-47D breast = tested on: T-47D breast
SW-620 colon = tested on: SW-620 colon
A549 NSCLC = tested on: A549 NSCLC
SK-MEL-2 melanoma = tested on: SK-MEL-2 melanoma
A498 renal = tested on: A498 renal
MDA-MB-231 breast = tested on: MDA-MB-231 breast

CCOc1ccccc1/C=N\N=C(\N)N/N=C/c1ccccc1OCC
4.48 µM: TGI (OVCAR-3 ovarian)
> 100 µM: TGI (LOX IMVI melanoma) | TGI (IGROV1 ovarian) | TGI (DU-145 prostate) | TGI (SF-295 CNS) | TGI (BT-549 breast) | TGI (OVCAR-4 ovarian) | TGI (UO-31 renal) | TGI (SN12C renal) | TGI (RPMI-8226 leukemia) | TGI (NCI-H226 lung) | TGI (MOLT-4 leukemia) | TGI (NCI/ADR-RES ovarian) | TGI (ACHN renal) | TGI (SK-MEL-5 melanoma) | TGI (CCRF-CEM leukemia) | TGI (HOP-62 NSCLC) | TGI (PC-3 prostate) | TGI (HCT-15 colon) | TGI (KM12 colon) | TGI (SK-OV-3 ovarian) | TGI (UACC-257 melanoma) | TGI (U251 CNS) | TGI (SK-MEL-28 melanoma) | TGI (MCF7 breast) | TGI (UACC-62 melanoma) | TGI (NCI-H460 lung) | TGI (K-562 leukemia) | TGI (HT29 colon) | TGI (TK-10 renal) | TGI (NCI-H23 lung) | TGI (HCT-116 colon) | TGI (CAKI-1 renal) | TGI (SF-268 CNS) | TGI (OVCAR-8 ovarian) | TGI (786-0 renal) | TGI (SNB-19 CNS) | TGI (EKVX NSCLC) | TGI (T-47D breast) | TGI (SW-620 colon) | TGI (A549 NSCLC) | TGI (SK-MEL-2 melanoma) | TGI (A498 renal) | TGI (MDA-MB-231 breast)
8.05 µM: TGI (SNB-75 CNS)
inactive: GI50 (LOX IMVI melanoma) 4.68 µM | GI50 (IGROV1 ovarian) 4.76 µM | GI50 (DU-145 prostate) 2.84 µM | GI50 (SF-295 CNS) 1.36 µM | GI50 (BT-549 breast) 5.08 µM | GI50 (OVCAR-4 ovarian) 3.68 µM | GI50 (UO-31 renal) 2.97 µM | GI50 (SN12C renal) 5.89 µM | GI50 (RXF 393 renal) 1.26 µM | GI50 (RPMI-8226 leukemia) 2.82 µM | GI50 (NCI-H226 lung) 5.55 µM | GI50 (MOLT-4 leukemia) 3.33 µM | GI50 (NCI/ADR-RES ovarian) 2.62 µM | GI50 (ACHN renal) 3.82 µM | GI50 (SK-MEL-5 melanoma) 1.63 µM | GI50 (CCRF-CEM leukemia) 3.06 µM | GI50 (HOP-62 NSCLC) 5.73 µM | GI50 (PC-3 prostate) 3.14 µM | GI50 (HCT-15 colon) 1.46 µM | GI50 (OVCAR-3 ovarian) 1.69 µM | GI50 (KM12 colon) 1.89 µM | GI50 (SK-OV-3 ovarian) 2.93 µM | GI50 (UACC-257 melanoma) 4.37 µM | GI50 (HL-60(TB) leukemia) 1.33 µM | GI50 (U251 CNS) 3.35 µM | GI50 (SK-MEL-28 melanoma) 4.51 µM | GI50 (MCF7 breast) 1.01 µM | GI50 (UACC-62 melanoma) 0.914 µM | GI50 (NCI-H460 lung) 3.16 µM | GI50 (K-562 leukemia) 0.707 µM | GI50 (HT29 colon) 2.5 µM | GI50 (HS 578T breast) 1.65 µM | GI50 (TK-10 renal) 6.16 µM | GI50 (SNB-75 CNS) 1.78 µM | GI50 (NCI-H23 lung) 5.86 µM | GI50 (HCT-116 colon) 3.12 µM | GI50 (CAKI-1 renal) 4.12 µM | GI50 (SF-268 CNS) 3.11 µM | GI50 (OVCAR-8 ovarian) 3.76 µM | GI50 (786-0 renal) 4.42 µM | GI50 (SNB-19 CNS) 4.49 µM | GI50 (EKVX NSCLC) 4.59 µM | GI50 (T-47D breast) 3.73 µM | GI50 (SW-620 colon) 2.46 µM | GI50 (A549 NSCLC) 4.25 µM | GI50 (SK-MEL-2 melanoma) 1.26 µM | GI50 (A498 renal) 2.42 µM | GI50 (MDA-MB-231 breast) 4.69 µM
8.92 µM: TGI (HL-60(TB) leukemia)
3.82 µM: TGI (RXF 393 renal)
7.26 µM: TGI (HS 578T breast)
